Experimental data from patent US20240158418A1 (C4 Therapeutics, Inc., priority 2021, published 2024).
Like-named read-outs stand apart in the source and are kept apart here.

What was measured:
Type in all cases: cell-based
EGFR L858R-T790M = biological target: T1, EGFR L858R-T790M (Homo sapiens, UniProt P00533, L858R/T790M); assay: EGFR degradation, Total EGFR (L858R-specific) HTRF, NCI-H1975; conditions: NCI-H1975 cells, 6 hours, Total EGFR HTRF, read-out: H1975 EGFR DC50
T1 construct: NCI-H1975 (harboring EGFR heterozygous L858R-T790M mutations); host or cells: NCI-H1975
Procedure, shortened: (§1)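 HTRF read-outs: pY1068 phospho-EGFR for IC50; total EGFR (pan-EGFR in A431, L858R-specific in mutant lines) for DC50. Compounds were titrated 11 points, half-log, from 10 μM in duplicate onto cells in 10% FBS RPMI, incubated 6 h at 37°C.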

EGFR L858R-T790M-C797S = biological target: T2, EGFR L858R-T790M-C797S (Homo sapiens, UniProt P00533, C797S/L858R/T790M); assay: EGFR degradation, Total EGFR (L858R-specific) HTRF, NCI-H1975+CS; conditions: 6 hours, Total EGFR HTRF
T2 construct: generated using CRISPR technology to introduce the additional C797S mutation by Horizon Discovery; host or cells: NCI-H1975+CS (CRISPR knock-in of C797S)
Description: NCI-H1975 (harboring EGFR heterozygous L858R-T790M mutations) and NCI-H3255 (harboring EGFR heterozygous L858R mutation) were purchased from ATCC and NCI, respectively. NCI-H1975+CS (harboring EGFR heterozygous L858R-T790M-C797S mutations) was generated using CRISPR technology to introduce the additional C797S mutation by Horizon Discovery. A431 (harboring EGFR wildtype) was purchased from ATCC. RPMI 1640 no-phenol red medium and fetal bovine serum (FBS) were purchased from Gibco (Grand Island, NY, USA). Cell culture flasks and 384-well microplates were acquired from VWR (Radnor, PA, USA). Phosphorylated (pY1068) EGFR and Total EGFR (using L858R-specific detection antibody and pan-EGFR antibody for EGFR mutant cell lines and EGFR wild-type cell lines, respectively) HTRF assay kits were purchased from Cisbio (Bedford, MA, USA).
Degradation of EGFR protein containing L858R mutation or wild-type was determined based on quantification of FRET signal using a Total EGFR (L858R-specific or pan-EGFR detecting) HTRF assay kit. Phospho-EGFR (pEGFR) inhibition was determined based on quantification of FRET signal using a pY1068 EGFR HTRF assay kit. In separate assay plates, test compounds were added to the 384-well plate from a top concentration of 10 μM with 11 points, half log titration in duplicates. For each assay, 12.5 uL of cells suspended in assay media (RPMI 1640 no-phenol red medium+10% FBS) at cell densities indicated for each cell line in Table 8 below were dispensed using a multi-channel pipette to 384-well low volume white HTRF microplates containing a duplicate concentration range of test compounds and DMSO controls. The plates were kept at 37° C. with 5% CO2 for 6 hours and then incubated with either phospho EGFR or Total EGFR HTRF detection antibodies according to the cell line and EGFR mutant being assayed. Cells treated in the absence of the test compound were the negative control. Positive control was set by wells containing all reagents but no cells. FRET signal was acquired on EnVision™ Multilabel Reader (PerkinElmer, Santa Clara, CA, USA). Compound concentration that achieves 50% degradation and inhibition was reported as DC50 and IC50, respectively.

EGFR L858R = EGFR L858R (Homo sapiens, UniProt P00533, L858R); assay: EGFR degradation, Total EGFR (L858R-specific) HTRF, NCI-H3255; parameters: NCI-H3255 (harboring EGFR heterozygous L858R mutation); host or cells: NCI-H3255; conditions: NCI-H3255 cells, 6 hours, Total EGFR HTRF, read-out: H3255 EGFR DC50
Procedure, shortened: as §1

[1] = Table 9A, NCI-H1975+CS cells, read-out: H1975+ CS EGFR DC50
[2] = Table 9B, NCI-H1975 C797S clone, read-out: H1975 C797S clone EGFR DC50

Measured: DC50

T1 sequence (P00533 25-1210 T790M/L858R): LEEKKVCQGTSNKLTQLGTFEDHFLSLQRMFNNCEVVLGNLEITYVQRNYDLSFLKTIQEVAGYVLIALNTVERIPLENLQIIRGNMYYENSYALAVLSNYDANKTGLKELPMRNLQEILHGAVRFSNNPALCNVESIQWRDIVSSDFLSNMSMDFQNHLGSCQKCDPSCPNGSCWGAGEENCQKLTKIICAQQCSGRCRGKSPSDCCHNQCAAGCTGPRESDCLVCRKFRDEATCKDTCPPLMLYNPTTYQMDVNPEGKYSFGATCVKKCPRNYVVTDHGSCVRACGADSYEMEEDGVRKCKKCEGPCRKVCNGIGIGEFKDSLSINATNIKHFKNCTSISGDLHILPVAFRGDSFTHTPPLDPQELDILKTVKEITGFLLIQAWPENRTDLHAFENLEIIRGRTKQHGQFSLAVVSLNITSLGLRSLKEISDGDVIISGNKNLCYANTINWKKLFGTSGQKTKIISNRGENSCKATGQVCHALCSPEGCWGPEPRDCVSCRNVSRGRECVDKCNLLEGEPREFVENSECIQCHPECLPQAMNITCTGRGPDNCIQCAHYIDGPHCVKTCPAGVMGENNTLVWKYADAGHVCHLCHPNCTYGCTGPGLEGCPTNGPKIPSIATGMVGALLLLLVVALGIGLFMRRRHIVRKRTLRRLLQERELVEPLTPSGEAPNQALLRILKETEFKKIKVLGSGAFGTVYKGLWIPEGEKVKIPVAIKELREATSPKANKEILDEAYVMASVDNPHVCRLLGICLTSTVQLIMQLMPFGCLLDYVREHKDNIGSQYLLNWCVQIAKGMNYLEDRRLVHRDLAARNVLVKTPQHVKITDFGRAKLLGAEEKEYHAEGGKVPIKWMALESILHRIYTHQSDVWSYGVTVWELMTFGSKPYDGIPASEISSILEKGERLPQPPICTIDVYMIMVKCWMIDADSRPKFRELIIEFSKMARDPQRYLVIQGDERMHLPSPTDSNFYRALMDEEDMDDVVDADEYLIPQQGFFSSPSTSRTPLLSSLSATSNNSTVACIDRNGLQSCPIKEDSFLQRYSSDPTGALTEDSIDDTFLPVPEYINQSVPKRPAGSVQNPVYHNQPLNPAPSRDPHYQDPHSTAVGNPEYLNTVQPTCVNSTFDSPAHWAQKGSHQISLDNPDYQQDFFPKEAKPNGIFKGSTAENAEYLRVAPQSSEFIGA
EGFR L858R, sequence (P00533 25-1210 L858R): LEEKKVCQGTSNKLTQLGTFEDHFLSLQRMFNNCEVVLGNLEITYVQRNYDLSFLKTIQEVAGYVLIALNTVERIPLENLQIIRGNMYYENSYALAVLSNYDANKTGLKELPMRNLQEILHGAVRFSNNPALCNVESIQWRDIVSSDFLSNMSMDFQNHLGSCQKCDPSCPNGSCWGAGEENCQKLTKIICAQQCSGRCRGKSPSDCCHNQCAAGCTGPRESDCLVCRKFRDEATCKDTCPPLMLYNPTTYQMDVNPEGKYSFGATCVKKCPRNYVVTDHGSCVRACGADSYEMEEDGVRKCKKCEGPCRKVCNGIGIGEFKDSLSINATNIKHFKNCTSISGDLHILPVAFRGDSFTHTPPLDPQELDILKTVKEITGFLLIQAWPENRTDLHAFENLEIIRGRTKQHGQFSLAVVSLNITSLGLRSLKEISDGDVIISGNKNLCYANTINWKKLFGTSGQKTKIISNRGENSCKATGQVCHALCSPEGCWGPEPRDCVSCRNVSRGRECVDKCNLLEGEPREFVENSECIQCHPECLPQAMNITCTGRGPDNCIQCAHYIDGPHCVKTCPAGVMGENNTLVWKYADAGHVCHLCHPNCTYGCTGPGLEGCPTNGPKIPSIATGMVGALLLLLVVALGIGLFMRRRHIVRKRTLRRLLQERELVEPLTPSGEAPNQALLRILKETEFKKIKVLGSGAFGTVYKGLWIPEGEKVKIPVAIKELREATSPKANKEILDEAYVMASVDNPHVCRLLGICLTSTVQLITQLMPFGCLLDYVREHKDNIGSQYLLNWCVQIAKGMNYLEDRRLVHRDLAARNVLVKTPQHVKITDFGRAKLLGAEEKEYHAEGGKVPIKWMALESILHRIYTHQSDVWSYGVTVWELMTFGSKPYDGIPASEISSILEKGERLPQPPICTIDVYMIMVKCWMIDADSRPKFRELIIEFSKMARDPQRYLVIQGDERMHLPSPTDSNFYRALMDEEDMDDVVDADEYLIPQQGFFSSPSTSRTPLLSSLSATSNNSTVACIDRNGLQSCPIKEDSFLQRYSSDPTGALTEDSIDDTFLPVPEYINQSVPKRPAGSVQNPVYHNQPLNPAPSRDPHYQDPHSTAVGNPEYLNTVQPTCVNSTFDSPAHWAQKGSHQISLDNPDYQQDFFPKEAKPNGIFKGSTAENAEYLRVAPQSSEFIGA
T2 sequence (P00533 25-1210 T790M/C797S/L858R): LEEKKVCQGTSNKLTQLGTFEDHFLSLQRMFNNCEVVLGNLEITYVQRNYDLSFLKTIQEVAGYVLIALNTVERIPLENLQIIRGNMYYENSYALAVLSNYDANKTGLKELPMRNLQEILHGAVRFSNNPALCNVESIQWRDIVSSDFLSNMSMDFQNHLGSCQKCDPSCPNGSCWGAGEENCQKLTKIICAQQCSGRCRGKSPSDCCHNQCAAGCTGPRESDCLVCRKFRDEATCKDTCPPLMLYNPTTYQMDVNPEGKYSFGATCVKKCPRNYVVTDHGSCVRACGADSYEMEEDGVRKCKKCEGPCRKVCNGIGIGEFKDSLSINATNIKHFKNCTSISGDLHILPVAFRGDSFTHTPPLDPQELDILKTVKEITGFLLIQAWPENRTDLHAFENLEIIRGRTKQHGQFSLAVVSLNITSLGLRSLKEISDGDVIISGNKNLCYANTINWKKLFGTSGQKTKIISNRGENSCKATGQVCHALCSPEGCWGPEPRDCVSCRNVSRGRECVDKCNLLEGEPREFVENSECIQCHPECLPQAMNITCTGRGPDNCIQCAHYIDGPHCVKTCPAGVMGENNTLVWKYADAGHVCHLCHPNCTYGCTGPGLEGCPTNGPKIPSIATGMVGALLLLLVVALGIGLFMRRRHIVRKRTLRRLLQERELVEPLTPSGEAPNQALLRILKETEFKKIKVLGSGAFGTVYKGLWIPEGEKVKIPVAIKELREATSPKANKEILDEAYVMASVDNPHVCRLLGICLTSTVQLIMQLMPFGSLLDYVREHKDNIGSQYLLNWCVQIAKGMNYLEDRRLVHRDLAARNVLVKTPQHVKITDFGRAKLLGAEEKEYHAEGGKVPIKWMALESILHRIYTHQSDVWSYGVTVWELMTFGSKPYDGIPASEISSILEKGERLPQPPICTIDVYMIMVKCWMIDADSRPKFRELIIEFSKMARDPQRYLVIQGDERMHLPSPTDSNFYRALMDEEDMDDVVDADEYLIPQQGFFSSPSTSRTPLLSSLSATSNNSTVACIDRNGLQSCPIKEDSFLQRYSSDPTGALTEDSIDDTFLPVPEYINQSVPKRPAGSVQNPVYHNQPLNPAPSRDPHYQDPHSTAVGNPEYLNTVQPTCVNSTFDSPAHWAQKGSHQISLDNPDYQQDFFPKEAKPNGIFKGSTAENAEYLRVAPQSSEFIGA

Cn1nc(N2CCC(=O)NC2=O)c2ccc(C3CCN(CC(=O)N4CCN(c5ccc(-c6cc(F)c7c(c6)C(=O)N(C(C(=O)Nc6nccs6)c6ncn8c6CCC8)C7)cc5)CC4)CC3)cc21 (stereo not drawn) [Compound 17, 2-(6,7-dihydro-5H-pyrrolo[1,2-c]imidazol-1-yl)-2-(6-(4-(4-(2-(4-(3-(2,4-dioxotetrahydropyrimidin-1(2H)-yl)-1-methyl-1H-indazol-6-yl)piperidin-1-yl)acetyl)piperazin-1-yl)phenyl)-4-fluoro-1-oxoisoindolin-2-yl)-N-(thiazol-2-yl)acetamide]
< 50 nM: EGFR L858R-T790M; Table 9A | EGFR L858R-T790M-C797S; [1] | EGFR L858R; Table 9A

O=C1CCC(Nc2ccc(C3CCN(CC(=O)N4CCC(NC(=O)c5ccc(C#Cc6cc(F)c7c(c6)C(=O)N(C(C(=O)Nc6nccs6)c6ncn8c6CCC8)C7)cn5)CC4)CC3)cc2)C(=O)N1 (stereo not drawn) [Compound 97, 5-((2-(1-(6,7-dihydro-5H-pyrrolo[1,2-c]imidazol-1-yl)-2-oxo-2-(thiazol-2-ylamino)ethyl)-7-fluoro-3-oxoisoindolin-5-yl)ethynyl)-N-(1-(2-(4-(4-((2,6-dioxopiperidin-3-yl)amino)phenyl)piperidin-1-yl)acetyl)piperidin-4-yl)picolinamide]
< 50 nM: EGFR L858R-T790M; Table 9B | EGFR L858R-T790M-C797S; [2] | EGFR L858R; Table 9B

O=C1CC[C@H](Nc2ccc(C3CCN(CC(=O)N4CCC(Oc5ccc(-c6cc(F)c7c(c6)C(=O)N(C(C(=O)Nc6nccs6)c6ncn8c6CCC8)C7)cc5)CC4)CC3)cc2)C(=O)N1 (stereo partly drawn) [Compound 32, 2-(6,7-dihydro-5H-pyrrolo[1,2-c]imidazol-1-yl)-2-[6-[4-[[1-[2-[4-[4-[[(3S)-2,6-dioxo-3-piperidyl]amino]phenyl]-1-piperidyl]acetyl]-4-piperidyl]oxy]phenyl]-4-fluoro-1-oxo-isoindolin-2-yl]-N-thiazol-2-yl-acetamide]
< 50 nM: EGFR L858R-T790M; Table 9A | EGFR L858R-T790M-C797S; [1] | EGFR L858R; Table 9A

O=C1CC[C@H](Nc2ccc(C3CCN(C(=O)CN4CCN(Cc5ccc(-c6cc(F)c7c(c6)C(=O)N(C(C(=O)Nc6nccs6)c6ncn8c6CCC8)C7)cc5)CC4)CC3)c(F)c2)C(=O)N1 (stereo partly drawn) [Compound 59, 2-(6,7-dihydro-5H-pyrrolo[1,2-c]imidazol-1-yl)-2-[6-[4-[[4-[2-[4-[4-[[(3S)-2,6-dioxo-3-piperidyl]amino]-2-fluoro-phenyl]-1-piperidyl]-2-oxo-ethyl]piperazin-1-yl]methyl]phenyl]-4-fluoro-1-oxo-isoindolin-2-yl]-N-thiazol-2-yl-acetamide]
< 50 nM: EGFR L858R-T790M; Table 9A | EGFR L858R-T790M-C797S; [1] | EGFR L858R; Table 9A

O=C1CC[C@@H](Nc2ccc(N3CCC(O)(CC(=O)N4CC5(C4)CN(c4ccc(-c6cc(F)c7c(c6)C(=O)N(C(C(=O)Nc6nccs6)c6ncn8c6CCC8)C7)cc4)C5)CC3)c(F)c2)C(=O)N1 (stereo partly drawn) [Compound 98, 2-(6,7-dihydro-5H-pyrrolo[1,2-c]imidazol-1-yl)-2-[6-[4-[2-[2-[1-[4-[[(3R)-2,6-dioxo-3-piperidyl]-amino]-2-fluoro-phenyl]-4-hydroxy-4-piperidyl]acetyl]-2,6-diazaspiro[3.3]heptan-6-yl]phenyl]-4-fluoro-1-oxo-isoindolin-2-yl]-N-thiazol-2-yl-acetamide]
< 50 nM: EGFR L858R-T790M; Table 9B | EGFR L858R-T790M-C797S; [2] | EGFR L858R; Table 9B

O=C1CC[C@H](Nc2ccc(C3CCN(CC(=O)N4CC5(C4)CN(c4ccc(-c6cc(F)c7c(c6)C(=O)N(C(C(=O)Nc6nccs6)c6ncn8c6CCC8)C7)cc4)C5)CC3)c(F)c2)C(=O)N1 (stereo partly drawn) [Compound 48, 2-(6,7-dihydro-5H-pyrrolo[1,2-c]imidazol-1-yl)-2-[6-[4-[2-[2-[4-[4-[[(3S)-2,6-dioxo-3-piperidyl]amino]-2-fluoro-phenyl]-1-piperidyl]acetyl]-2,6-diazaspiro[3.3]heptan-6-yl]phenyl]-4-fluoro-1-oxo-isoindolin-2-yl]-N-thiazol-2-yl-acetamide]
< 50 nM: EGFR L858R-T790M; Table 9A | EGFR L858R-T790M-C797S; [1] | EGFR L858R; Table 9A

N#Cc1cc(NC2CCC(=O)NC2=O)ccc1C1CCN(CC(=O)N2CCN(c3ccc(-c4cc(F)c5c(c4)C(=O)N(C(C(=O)Nc4nccs4)c4ncn6c4CCC6)C5)cc3)CC2)CC1 (stereo not drawn) [Compound 14, 2-[6-[4-[4-[2-[4-[2-cyano-4-[(2,6-dioxo-3-piperidyl)amino]phenyl]-1-piperidyl]acetyl]piperazin-1-yl]phenyl]-4-fluoro-1-oxo-isoindolin-2-yl]-2-(6,7-dihydro-5H-pyrrolo[1,2-c]imidazol-1-yl)-N-thiazol-2-yl-acetamide]
< 50 nM: EGFR L858R-T790M; Table 9A | EGFR L858R-T790M-C797S; [1] | EGFR L858R; Table 9A

O=C1CCC(Nc2ccc(C3CCN(CC(=O)N4CCC(Oc5ccc(-c6cc(F)c7c(c6)C(=O)N(C(C(=O)Nc6nccs6)c6ncn8c6CCC8)C7)cc5)CC4)CC3)c(F)c2)C(=O)N1 (stereo not drawn) [Compound 35, 2-(6,7-dihydro-5H-pyrrolo[1,2-c]imidazol-1-yl)-2-(6-(4-((1-(2-(4-(4-((2,6-dioxopiperidin-3-yl)amino)-2-fluorophenyl)piperidin-1-yl)acetyl)piperidin-4-yl)oxy)phenyl)-4-fluoro-1-oxoisoindolin-2-yl)-N-(thiazol-2-yl)acetamide]
< 50 nM: EGFR L858R-T790M; Table 9A | EGFR L858R-T790M-C797S; [1] | EGFR L858R; Table 9A

O=C1CCC(Nc2ccc(C3CCN(CC(=O)N4CC5(C4)CN(c4ccc(-c6cc(F)c7c(c6)C(=O)N(C(C(=O)Nc6nccs6)c6ncn8c6CCC8)C7)cc4)C5)CC3)cc2)C(=O)N1 (stereo not drawn) [Compound 47, 2-(6,7-dihydro-5H-pyrrolo[1,2-c]imidazol-1-yl)-2-[6-[4-[2-[2-[4-[4-[(2,6-dioxo-3-piperidyl)amino]phenyl]-1-piperidyl]acetyl]-2,6-diazaspiro[3.3]heptan-6-yl]phenyl]-4-fluoro-1-oxo-isoindolin-2-yl]-N-thiazol-2-yl-acetamide]
< 50 nM: EGFR L858R-T790M; Table 9A | EGFR L858R-T790M-C797S; [1] | EGFR L858R; Table 9A

O=C1CCC(Nc2ccc(C3CCN(CC(=O)N4CCN(c5ccc(-c6cc(F)c7c(c6)C(=O)N(C(C(=O)Nc6nccs6)c6ncn8c6CCC8)C7)cc5)CC4)CC3)c(C(F)F)c2)C(=O)N1 (stereo not drawn) [Compound 15, 2-[6-[4-[4-[2-[4-[2-(difluoromethyl)-4-[(2,6-dioxo-3-piperidyl)amino]phenyl]-1-piperidyl]acetyl]piperazin-1-yl]phenyl]-4-fluoro-1-oxo-isoindolin-2-yl]-2-(6,7-dihydro-5H-pyrrolo[1,2-c]imidazol-1-yl)-N-thiazol-2-yl-acetamide]
< 50 nM: EGFR L858R-T790M; Table 9A | EGFR L858R-T790M-C797S; [1] | EGFR L858R; Table 9A

N#Cc1cc(NC2CCC(=O)NC2=O)ccc1C1CCN(CC(=O)N2CCC(Oc3ccc(-c4cc(F)c5c(c4)C(=O)N(C(C(=O)Nc4nccs4)c4ncn6c4CCC6)C5)cc3)CC2)CC1 (stereo not drawn) [Compound 37]
< 50 nM: EGFR L858R-T790M; Table 9A | EGFR L858R-T790M-C797S; [1] | EGFR L858R; Table 9A
